Measured values published in the supplement of paper PMC11451515.

Tests used:
Assay in all cases: AUC of viability dose-response curve (% viability x log10 dose units); higher = less sensitive
Settings in all cases: 48 h
[1] = test system: NOMO1
Method in brief: (§1)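 Leukemia cells adapted to each medium (500 or 1000 cells/well, 1536-well plates) were exposed to library compounds in DMSO for 48 h at 37°C at 11 threefold doses, 47 μM to 0.79 nM. Luminescence by CellTiter-Glo One was normalised per plate to DMSO and cell-free wells, then fitted with a four-parameter log-logistic curve on log10 dose. Curves above full viability were scaled and quality-control failures removed before area under the curve was integrated by trapezoidal rule.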

[2] = test system: P12-Ichikawa
Method in brief: as §1

[3] = test system: SEM cells
Method in brief: as §1

[4] = RPMI 5 mM glucose + 10% dialyzed FBS

Structure (SMILES) | AUC of viability dose-response curve ([1]; HPLM + 10% dialyzed FBS) | AUC of viability dose-response curve ([1]; RPMI 5 mM glucose + 10% FBS) | AUC of viability dose-response curve [1, 4] | AUC of viability dose-response curve ([2]; HPLM + 10% dialyzed FBS) | AUC of viability dose-response curve ([2]; RPMI 5 mM glucose + 10% FBS) | AUC of viability dose-response curve [2, 4] | AUC of viability dose-response curve ([3]; HPLM + 10% dialyzed FBS) | AUC of viability dose-response curve ([3]; RPMI 5 mM glucose + 10% FBS) | AUC of viability dose-response curve [3, 4]
C[C@H]1C[C@@H]2[C@H](CC[C@@]3(C)[C@H]2CC[C@]3(OC(C)=O)C(C)=O)[C@@]\4(C)CCC(=O)\C=C14 | 471 | 472 | 458 | 464 | 446 | 442 | 417 | 433 | 425
COC(=O)C[C@](O)(CCCC(C)(C)O)C(=O)O[C@@H]1C(OC)=CC23CCCN2CCc2cc4c(cc2[C@H]13)OCO4 (some centres undefined) | 458 | 466 | 466 | 458 | 458 | 458 | 462 | 452 | 471
CC[S+](=O)([O-])c1cccc(-c2cc(C(=O)NC3CCN(C)CC3)c(C)c3[nH]c4ncc(C)cc4c23)c1 | 354 | 385 | 359 | 298 | 290 | 320 | 312 | 285 | 297
CCN(CC)CCCCNc1ncc2cc(-c3cc(OC)cc(OC)c3)c(NC(=O)NC(C)(C)C)nc2n1 | 388 | 459 | 444 | 449 | 406 | 404 | 400 | 393 | 391
O=C(O)CCC1CCC(c2cc(F)ccc2F)([S+](=O)([O-])c2ccc(Cl)cc2)CC1 (centres undefined) | 373 | 357 | 378 | 403 | 412 | 428 | 464 | 470 | 468
CC1CNc2c(cccc2[S+](=O)([O-])N[C@@H](CCCNC(=N)N)C(=O)N2CC[C@@H](C)C[C@@H]2C(=O)O)C1 (some centres undefined) | 435 | 465 | 465 | 468 | 473 | 472 | 453 | 450 | 462
CC1(C)O[C@@H]2C[C@H]3[C@@H]4C[C@H](F)C5=CC(=O)C=C[C@]5(C)[C@@]4(F)[C@@H](O)C[C@]3(C)[C@]2(C(=O)CO)O1 | 460 | 460 | 457 | 324 | 303 | 272 | 305 | 314 | 291
CNCCCC12CCC(c3ccccc31)c1ccccc12 | 429 | 426 | 411 | 442 | 439 | 428 | 453 | 443 | 469
CCN1CCN(c2ccc(Nc3cc(N(C)C(=O)Nc4c(Cl)c(OC)cc(OC)c4Cl)ncn3)cc2)CC1 | 372 | 395 | 399 | 429 | 428 | 423 | 347 | 316 | 351
CC(C)(C)NC(=O)Nc1cccc(Nc2ncc(F)c(NC(C)(C)CO)n2)c1 | 477 | 450 | 459 | 415 | 425 | 429 | 415 | 396 | 397
CCOC(=O)c1ccc(OC(=O)CCCCCNC(=N)N)cc1 | 410 | 444 | 437 | 354 | 413 | 407 | 436 | 385 | 418
C[C@]12CCC(=O)C=C1CC[C@@H]1[C@@H]2[C@@H](O)C[C@@]2(C)[C@H]1CC[C@]2(O)C(=O)CO | 474 | 456 | 458 | 447 | 425 | 412 | 466 | 427 | 443
COC(=O)Nc1cc(Nc2cc(NC3CC3)c3ncc(C#N)n3n2)c(Cl)c(N2CCN(C)CC2)c1 | 384 | 385 | 368 | 423 | 400 | 392 | 363 | 346 | 328
CCN1CCN(CC1)CC(=O)NC2=CC=C(C3=C2C4=C(S3)C=CC=C4)C5=C6O\C(=C/C(=O)C6=CC=C5)N7CCOCC7 | 420 | 442 | 432 | 464 | 447 | 453 | 337 | 337 | 338
CN(C)[S+](=O)([O-])c1ccc2c(c1)C(=Cc1cc3c([nH]1)CCCC3)C(=O)N2 | 467 | 453 | 455 | 467 | 464 | 468 | 462 | 462 | 459
Nc1ncnc2c1ncn2[C@@H]1O[C@@H](CO)[C@H](O)[C@@H]1O | 454 | 467 | 441 | 464 | 477 | 472 | 467 | 466 | 449
